Data taken from patent US11944605B2, “Rapamycin analogs and uses thereof” (Janssen Pharmaceutica NV, priority 2018, dated 2024).
“Also recorded” adds a separate entry of the source. Read-outs that look alike come from different tables or passages of the source.

Tests used:
[1] = system: mTORC2 pathway (Akt phosphorylation) in PC3 cells; test: Western blot, mTORC2 pathway (pAkt) in PC3 cells; type: cell-based; conditions: for inhibition of mTORC2 (Akt phosphorylation): 24 hours
In short: (§1)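 Triton lysates analysed by Western blot for pS6K1 and pAkt, detected with IRDye 800 anti-rabbit secondary on a Li-Cor imager.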

[2] = system: T389 of S6K1 (an mTORC1 substrate); conditions: PC3, HEK-293T, HeLa, and H460 cells, 1 or 24 hour treatments; cited from earlier work
[3] = system: mTORC1 pathway in tuberous sclerosis (TSC2) negative (TSC−/−) MEF cells; test: Western blot, mTORC1 pathway in TSC−/− MEF cells; type: cell-based, mouse
Experimental: (§2) The methods employed were substantially similar to those described above. Compounds were evaluated in PC3 cells, Jurkat cells, wild-type mouse embryotic fibroblast (MEF) cells, tuberous sclerosis 2 (TSC2) negative (TSC −/−) MEF cells, and tuberous sclerosis 2 (TSC2) positive (TSC +/+) MEF cells. Cells were incubated with compounds of the present invention for various time periods (e.g., 5 minutes, 15 minutes, 30 minutes, 90 minutes, 24 hours, or 48 hours), and evaluated according to known methodologies, such as those herein described.

[4] = system: 4E-BP1 phosphorylation in PC3 cells; test: Western blot, 4E-BP1 phosphorylation in PC3 cells; type: cell-based; conditions: 24 hours
[5] = system: glucose uptake in human adipocytes; conditions: 0.01 μM; cited from earlier work
Lmn−/− mice = conditions: short-term treatment; cited from earlier work
IFN-γ production = IFN-γ production in allogenic mixed lymphocyte reaction; type: cell-based; conditions: for IC50: read-out: IFN-γ Inhibition IC50s
Experimental: Assessment of Effect on IFN-γ Production in Allogenic Mixed Lymphocyte Reaction
The effect of rapamycin, everolimus, I-29, and I-117 on IFN-y production was evaluated in an allogenic mixed lymphocyte reaction (E.g., Eleftheriadis, T. et al., Int. J. Mol. Med., 37(5): 1412-20 (2016) https://doi.org/10.3892/ijmm.2016.2547).

[6] = system: Akt (an mTORC2 substrate); conditions: cited from earlier work
[7] = system: mTORC1 pathway in tuberous sclerosis 2 (TSC2) positive (TSC+/+) MEF cells; test: Western blot, mTORC1 pathway in TSC+/+ MEF cells; type: cell-based, mouse
Experimental: as §2

[8] = Glucose tolerance (ipGTT) during chronic treatment in lean C57Bl/6 mice; type: in vivo; conditions: chronic treatment 15 days, I-29 10 mg/kg PO, rapamycin 10 mg/kg IP
Experimental: Assessment of Effect of Chronic Treatment with I-29 on Glucose Tolerance and Insulin Sensitivity in Lean C57Bl/6 Mice
C57Bl/6 mice (n=12; 8 weeks of age) were randomized and baseline measurements (weight, fasting glucose, and fasting insulin) were measured four (4) days prior to the administration of compounds or vehicle. Animals were then treated with I-29 (10 mg/kg PO), rapamycin (10 mg/kg IP) or vehicle (PO or IP) for 19 days. On day 7 and 14 animals were weighed and fed glucose and fed insulin levels were evaluated. Animals were fasted overnight on day 14 and on day 15 fasting insulin and an intraperitoneal glucose tolerance test (ipGTT) were evaluated. On day 19 animals were sacrificed one (1) hour after compound or vehicle administration. Tissues were harvested for evaluating compound levels and pharmacodynamics.

[9] = system: AKT (PKB) Ser473 phosphorylation; conditions: human adipocytes, 0.01 μM; cited from earlier work
[10] = system: mTORC1 pathway (pS6K1 T389) in PC3 cells; test: Western blot, mTORC1 pathway (pS6K1) in PC3 cells; type: cell-based
In short: as §1

Akt phosphorylation = conditions: mice treated daily for 1 week; cited from earlier work
[11] = Pharmacokinetic properties in C57Bl/6 mice; type: in vivo; conditions: for half-life: read-out: Terminal T1/2 (converted)
Experimental: Pharmacokinetic Properties
The pharmacokinetic properties of compounds of the present invention were evaluated in C57Bl/6 mice and compared with rapamycin. Animals were fasted overnight prior to administration of I-29 or rapamycin (1 mg/kg IV, 10 mg/kg PO, or 2 mg/kg IP). Animals were bled at time intervals for up to 48 hours following administration of compounds. Whole blood from each mouse was indivisually collected in polypropylene tubes and immediately centrifuged. Alloquates of the separated plasma were promptly prepared for HPCL analysis.

[12] = system: mTORC2 (Akt phosphorylation) in TSC+/+ MEF cells; test: Western blot, mTORC2 pathway (pAkt) in TSC+/+ MEF cells; type: cell-based, mouse; conditions: 90 minutes
Experimental: as §2

[13] = system: mTORC2 (Akt phosphorylation) in Jurkat cells; test: Western blot, mTORC2 pathway (pAkt) in Jurkat cells; type: cell-based; conditions: 24 hrs
Experimental: as §2

[14] = system: pS6K1 (p-p70 S6 Kinase (Thr389)) in MCF-7 cells; test: AlphaLISA Ultra pS6K1 Assay; type: cell-based; conditions: Homo sapiens, 1.5 h; MCF7 cells, 90 min
In short: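 AlphaLISA Ultra read-out (acceptor beads 2 h, then donor beads 2 h) on thawed lysates of MCF-7 cells. Cells had 20–24 h after seeding and a 2 h medium change, then 90 min of compound exposure at 0.5% final DMSO, with lysates stored at −80 °C.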

[15] = system: mTORC1 pathway in wild-type MEF cells; test: Western blot, mTORC1 pathway in wild-type MEF cells; type: cell-based, mouse; conditions: 24 hours
Experimental: as §2

[16] = system: mTORC2 (Akt phosphorylation) in TSC−/− MEF cells; test: Western blot, mTORC2 pathway (pAkt) in TSC−/− MEF cells; type: cell-based, mouse
Experimental: as §2

[17] = system: mTORC2 (Akt phosphorylation) in wild-type MEF cells; test: Western blot, mTORC2 pathway (pAkt) in wild-type MEF cells; type: cell-based, mouse; conditions: 24 hours
Experimental: as §2

[18] = system: mTORC1 pathway in Jurkat cells; test: Western blot, mTORC1 pathway in Jurkat cells; type: cell-based; conditions: 24 hrs
Experimental: as §2

mTORC1 over mTORC2 = test: mTORC1 selectivity over mTORC2 at 24 hrs (Western blot based pS6K1 and pAKT assay); type: cell-based; conditions: 24 hrs

Compound: CO[C@H]1C[C@@H]2CC[C@@H](C)[C@@](O)(O2)C(=O)C(=O)N2CCCC[C@H]2C(=O)O[C@H]([C@H](C)C[C@@H]2CC[C@@H](O)[C@H](OC)C2)CC(=O)[C@H](C)/C=C(\C)[C@@H](O)[C@@H](OC)C(=O)[C@H](C)C[C@H](C)/C=C/C=C/C=C/1C [Rapamycin, rapamycin]
- inhibition of the mTORC2 pathway (Akt phosphorylation) ([1]; 24 and 48 hours): inhibition; also recorded: inhibited
- inhibition of mTORC2 (Akt phosphorylation) [1]: dose dependent inhibition
- S6K1 phosphorylation [2]: inhibited
- inhibition of the mTORC1 pathway ([3]; 24 hours): strong inhibition
- inhibition of 4E-BP1 phosphorylation [4]: no inhibition
- glucose uptake [5]: reduced
- enhanced survival (Lmn−/− mice): ~50%
- inhibition of IFN-γ production (IFN-γ production): significantly inhibited
- IC50 (IFN-γ production): 2.4 nM
- inhibition of pAKT ([6]; HEK-293T cells): Partial inhibition
- Akt phosphorylation ([6]; HeLa cells): increase
- Akt phosphorylation ([6]; PC3 cells): strongly decreased
- inhibition of the mTORC1 pathway ([7]; 90 minutes): strong inhibition
- inhibition of the mTORC1 pathway ([7]; 24 hours): strong inhibition
- glucose intolerance in intraperitoneal glucose tolerance test (ipGTT) [8]: induced glucose intolerance
- AKT (PKB) Ser473 phosphorylation [9]: reduced
- inhibition of the mTORC1 pathway (pS6K1) ([10]; PC3 cells, 24 and 48 hours): significant reduction; also recorded: strong inhibition
- inhibition of the mTORC1 pathway ([10]; PC3 cells, 30, 15, or 5 minutes): time dependent inhibition
- inhibition of the mTORC1 pathway ([10]; PC3 cells, 90 minutes): strong inhibition
- inhibition of the mTORC1 pathway ([10]; PC3 cells, 24 hours): strong inhibition
- Akt phosphorylation in the thymus, adipose tissue, heart, and lung (Akt phosphorylation): decreased
- F ([11]; 2 mg/kg IP): 35.1%
- F ([11]; 10 mg/kg PO): 0.8%
- AUC(0-inf) ([11]; mouse, plasma, 1 mg/kg IV): 3630 ng·h/mL
- AUC(0-t) ([11]; mouse, plasma, 1 mg/kg IV): 3620 ng·h/mL
- MRT inf ([11]; mouse, plasma, 1 mg/kg IV): 6.27 h
- clearance ([11]; mouse, plasma, 1 mg/kg IV): 4.6 mL/min/kg
- half-life ([11]; mouse, plasma, 1 mg/kg IV): 8.35 h
- Vd ([11]; mouse, plasma, 1 mg/kg IV, read-out: Vss): 1.73 L/kg
- AUC(0-inf) ([11]; mouse, plasma, 2 mg/kg IP): 2540 ng·h/mL
- AUC(0-t) ([11]; mouse, plasma, 2 mg/kg IP): 2480 ng·h/mL
- Cmax ([11]; mouse, plasma, 2 mg/kg IP): 614 ng/mL
- Tmax ([11]; mouse, plasma, 2 mg/kg IP): 0.25 h
- half-life ([11]; mouse, plasma, 2 mg/kg IP): 4.8 h
- AUC(0-t) ([11]; mouse, plasma, 10 mg/kg PO): 292 ng·h/mL
- Cmax ([11]; mouse, plasma, 10 mg/kg PO): 52.8 ng/mL
- Tmax ([11]; mouse, plasma, 10 mg/kg PO): 3 h

Compound: CO[C@@H]1C[C@H](C[C@@H](C)[C@@H]2CC(=O)[C@H](C)/C=C(\C)[C@@H](O)[C@@H](OC)C(=O)[C@H](C)C[C@H](C)/C=C/C=C/C=C(\C)[C@@H](OCCOCCO)C[C@@H]3CC[C@@H](C)[C@@](O)(O3)C(=O)C(=O)N3CCCC[C@H]3C(=O)O2)CC[C@H]1OCCO [I-117, (21E,23E,25E,26E,34R,35S,36R,37R,39S,41S,43S,44S,45R,46R, 55R)-45,55-dihydroxy-43-[2-(2-hydroxyethoxy)ethoxy]-44-[(1R)-2-[(1S,3R, 4R)-4-(2-hydroxyethoxy)-3-methoxy-cyclohexyl]-1-methyl-ethyl]-46-methoxy-34,35,36,37,47,48-hexamethyl-66, 67-dioxa-56-azatricyclohexatriaconta-21,23,25(47),26(48)-tetraene-49, 50,51,52,53-pentone]
- inhibition of mTORC2 (Akt phosphorylation) [12]: do not inhibit
- inhibition of mTORC2 (Akt phosphorylation) [1]: does not inhibit
- inhibition of the mTORC1 pathway ([3]; 90 minutes): strong inhibition
- inhibition of the mTORC1 pathway ([3]; 24 hours): strong inhibition
- inhibition of 4E-BP1 phosphorylation [4]: no inhibition
- inhibition of mTORC2 (Akt phosphorylation) [13]: do not inhibit
- inhibition of IFN-γ production (IFN-γ production): did not inhibit
- IC50 (IFN-γ production): > 3000 nM
- inhibition of the mTORC1 pathway ([7]; 90 minutes): moderate concentration dependent inhibition
- IC50 [14]: < 0.1 nM
- inhibition of the mTORC1 pathway [15]: moderate inhibition; also recorded: strong inhibition
- inhibition of the mTORC1 pathway ([10]; PC3 cells, 24 hours): strong inhibition
- inhibition of mTORC2 (Akt phosphorylation) ([16]; 90 minutes): do not inhibit
- inhibition of mTORC2 (Akt phosphorylation) ([16]; 24 hours): do not inhibit
- inhibition of mTORC2 (Akt phosphorylation) [17]: do not inhibit
- inhibition of the mTORC1 pathway [18]: strong inhibition
- mTORC1 selective @ 24 hrs (mTORC1 over mTORC2): YES
